Laboratory results taken from patent US20260265249A1, “PHARMACEUTICALLY ACCEPTABLE SALT AND CRYSTAL FORM OF 1,4-DIHYDRO-1,6-NAPHTHYRIDINE AMIDE COMPOUND AND PREPARATION METHOD THEREFOR” (JIANGSU HENGRUI PHARMACEUTICALS CO., LTD., priority 2023, published 2026).

What was measured:
Format in all cases: physicochemical
[1] = DVS (dynamic vapor sorption) hygroscopicity test
From the text: According to the description of hygroscopicity characteristics and the definitions of hygroscopic weight gains in “General Rule 9103, Guidelines for Hygroscopicity” in the Chinese Pharmacopoeia, Volume IV, 2015 Edition, • deliquescent: sufficient water is absorbed to form a liquid; • extremely hygroscopic: the hygroscopic weight gain is not less than 15%; • hygroscopic: the hygroscopic weight gain is less than 15% but not less than 2%; • slightly hygroscopic: the hygroscopic weight gain is less than 2% but not less than 0.2%; • nonhygroscopic or practically nonhygroscopic: the hygroscopic weight gain is less than 0.2%.
TGA refers to thermogravimetric analysis: The analysis was performed using a METTLER TOLEDO TGA 2 thermogravimetric analyzer, with a temperature ramp rate of 10° C./min, specific temperature ranges shown in corresponding patterns (mostly 30-350° C.), and a nitrogen purge speed of 50 mL/min. DVS refers to dynamic vapor sorption: The analysis was performed using SMS DVS Advantage; at 25° C., the humidity was changed as follows: 50%-95%-0%-95%-50%, in steps of 10% (5% for the last step) (specific humidity ranges are shown in corresponding patterns, and those listed here were used in most cases); the criterion was dm/dt being not greater than 0.002%.

[2] = Influencing factor stability study (open containers; light, high temperature, high humidity; 30 days)
[3] = Long-term/accelerated stability study (sealed in aluminum foil bags, 25° C./60% RH and 40° C./75% RH)
[4] = accelerated experimental conditions, 70% RH
[5] = normal storage conditions, 25° C. and 60% RH
[6] = open container, 40° C., 1 month
[7] = open container, 40° C., 14 days
[8] = open container, 60° C., 1 month
[9] = open container, 60° C., 14 days
[10] = open container, 75% RH, 1 month
[11] = open container, 75% RH, 14 days
[12] = open container, 92.5% RH, 1 month
[13] = open container, 92.5% RH, 7 days
[14] = open container, 92.5% RH, 14 days
[15] = open container, light exposure (4500 Lux), 1 month
[16] = open container, light exposure (4500 Lux), 7 days
[17] = open container, light exposure (4500 Lux), 14 days
[18] = sealed aluminum foil bag, 25° C.-60% RH, 1 month
[19] = sealed aluminum foil bag, 25° C.-60% RH, 2 months
[20] = sealed aluminum foil bag, 25° C.-60% RH, 3 months
[21] = sealed aluminum foil bag, 25° C.-60% RH, 6 months
[22] = sealed aluminum foil bag, 40° C.-75% RH, 1 month
[23] = sealed aluminum foil bag, 40° C.-75% RH, 2 months
[24] = sealed aluminum foil bag, 40° C.-75% RH, 3 months
[25] = sealed aluminum foil bag, 40° C.-75% RH, 6 months
[26] = storage under long-term accelerated conditions for 6 months
[27] = 25° C.-60% RH, sealed aluminum foil bag, 1 month
[28] = 25° C.-60% RH, sealed aluminum foil bag, 2 months
[29] = 25° C.-60% RH, sealed aluminum foil bag, 3 months
[30] = 25° C.-60% RH, sealed aluminum foil bag, 6 months
[31] = 40° C.-75% RH, sealed aluminum foil bag, 1 month
[32] = 40° C.-75% RH, sealed aluminum foil bag, 2 months
[33] = 40° C.-75% RH, sealed aluminum foil bag, 3 months
[34] = 40° C.-75% RH, sealed aluminum foil bag, 6 months

With `[2H]C([2H])([2H])Oc1cc(C#N)ccc1[C@@H]1C(C(N)=O)=C(C)Nc2c(C)cnc(OCC)c21` [crystal form A] the hygroscopic weight gain [1, 4] was “about 0.7%”, the “crystal form re-identified after the DVS test” value (shortened to “crystal form re-identified”) [1] was “did not change” and the hygroscopic weight gain ([1]; extreme conditions, 90% RH) was “about 1.5%”. For the same compound, the hygroscopic weight gain [1, 5] was “about 0.5%”, the Crystal form ([2]; 0 days) was “Crystal form A” and the Purity ([2]; 0 days) was 99.7%. The Crystal form [2, 6] was “No change”, the Purity [2, 6] was 99.4% and the Crystal form ([2]; open container, 40° C., 7 days) was “No change”. For the same compound, the Purity ([2]; open container, 40° C., 7 days) was 99.6%, the Crystal form [2, 7] was “No change” and the Purity [2, 7] was 99.6%. The Crystal form [2, 8] was “No change”, the Purity [2, 8] was 99.4% and the Crystal form ([2]; open container, 60° C., 7 days) was “No change”. For the same compound, the Purity ([2]; open container, 60° C., 7 days) was 99.7%, the Crystal form [2, 9] was “No change” and the Purity [2, 9] was 99.6%. For the same compound, the Crystal form [2, 10] was “No change”, the Purity [2, 10] was 99.7% and the Crystal form ([2]; open container, 75% RH, 7 days) was “No change”. For the same compound, the Purity ([2]; open container, 75% RH, 7 days) was 99.6%, the Crystal form [2, 11] was “No change” and the Purity [2, 11] was 99.7%. The Crystal form [2, 12] was “No change”, the Purity [2, 12] was 99.7% and the Crystal form [2, 13] was “No change”. The Purity [2, 13] was 99.6%, the Crystal form [2, 14] was “No change” and the Purity [2, 14] was 99.7%. The Crystal form [2, 15] was “No change”, the Purity [2, 15] was 97.6% and the Crystal form [2, 16] was “No change”. For the same compound, the Purity [2, 16] was 99.4%, the Crystal form [2, 17] was “No change” and the Purity [2, 17] was 99.1%. For the same compound, the “stability in the influencing factor experiment (conclusion)” value ([2]; under other conditions (40° C., 60° C., 75% RH, 92.5% RH)) was “stable”, the “stability in the influencing factor experiment (conclusion)” value ([2]; under the light exposure condition) was “degraded” and the Crystal form ([3]; 0 days) was “Crystal form A”. The Purity ([3]; 0 days) was 99.7%, the Crystal form [3, 18] was “No change” and the Purity [3, 18] was 99.7%. The Crystal form [3, 19] was “No change”, the Purity [3, 19] was 99.7% and the Crystal form [3, 20] was “No change”. The Purity [3, 20] was 99.7%, the Crystal form [3, 21] was “No change” and the Purity [3, 21] was 99.7%. The Crystal form [3, 22] was “No change”, the Purity [3, 22] was 99.7% and the Crystal form [3, 23] was “No change”. For the same compound, the Purity [3, 23] was 99.6%, the Crystal form [3, 24] was “No change” and the Purity [3, 24] was 99.6%. For the same compound, the Crystal form [3, 25] was “No change”, the Purity [3, 25] was 99.5% and the “long-term/accelerated stability (conclusion)” value [3, 26] was “good physical and chemical stability”.
With `O=S(=O)(O)O.[2H]C([2H])([2H])Oc1cc(C#N)ccc1[C@@H]1C(C(N)=O)=C(C)Nc2c(C)cnc(OCC)c21` [crystal form a of sulfate] the hygroscopic weight gain [1, 4] was “about 1.9%”, the “crystal form re-identified” value [1] was “did not change” and the hygroscopic weight gain ([1]; extreme conditions, 90% RH) was “about 3.1%”. The hygroscopic weight gain [1, 5] was “about 1.6%”, the Crystal form ([2]; 0 days) was “Crystal form a of sulfate” and the Purity ([2]; 0 days) was 99.7%. The Crystal form [2, 6] was “No change”, the Purity [2, 6] was 98.5% and the Crystal form ([2]; open container, 40° C., 7 days) was “No change”. For the same compound, the Purity ([2]; open container, 40° C., 7 days) was 99.4%, the Crystal form [2, 7] was “No change” and the Purity [2, 7] was 98.8%. The Crystal form [2, 8] was “No change”, the Purity [2, 8] was 97.9% and the Crystal form ([2]; open container, 60° C., 7 days) was “No change”. For the same compound, the Purity ([2]; open container, 60° C., 7 days) was 99.2%, the Crystal form [2, 9] was “No change” and the Purity [2, 9] was 98.7%. The Crystal form [2, 10] was “No change”, the Purity [2, 10] was 99.7% and the Crystal form ([2]; open container, 75% RH, 7 days) was “No change”. For the same compound, the Purity ([2]; open container, 75% RH, 7 days) was 99.7%, the Crystal form [2, 11] was “No change” and the Purity [2, 11] was 99.6%. For the same compound, the Crystal form [2, 12] was “No change”, the Purity [2, 12] was 99.7% and the Crystal form [2, 13] was “No change”. For the same compound, the Purity [2, 13] was 99.6%, the Crystal form [2, 14] was “No change” and the Purity [2, 14] was 99.7%. The Crystal form [2, 15] was “No change”, the Purity [2, 15] was 98.1% and the Crystal form [2, 16] was “No change”. The Purity [2, 16] was 99.2%, the Crystal form [2, 17] was “No change” and the Purity [2, 17] was 98.9%. For the same compound, the “Purity (%)” value ([3]; 0 days (initial)) was 99.7%, the Crystal form [3, 27] was “No change” and the “Purity (%)” value [3, 27] was 99.7%. The Crystal form [3, 28] was “No change”, the “Purity (%)” value [3, 28] was 99.7% and the Crystal form [3, 29] was “No change”. The “Purity (%)” value [3, 29] was 99.8%, the Crystal form [3, 30] was “No change” and the “Purity (%)” value [3, 30] was 99.7%. The Crystal form [3, 31] was “No change”, the “Purity (%)” value [3, 31] was 99.6% and the Crystal form [3, 32] was “No change”. The “Purity (%)” value [3, 32] was 99.7%, the Crystal form [3, 33] was “No change” and the “Purity (%)” value [3, 33] was 99.6%. The Crystal form [3, 34] was “No change”, the “Purity (%)” value [3, 34] was 99.6% and the “long-term/accelerated stability (conclusion)” value [3, 26] was “good physical and chemical stability”.
With `Br.[2H]C([2H])([2H])Oc1cc(C#N)ccc1[C@@H]1C(C(N)=O)=C(C)Nc2c(C)cnc(OCC)c21` [crystal form I of hydrobromide] the hygroscopic weight gain [1, 4] was “about 13.2%”, the “crystal form re-identified” value [1] was “did not change” and the hygroscopic weight gain ([1]; extreme conditions, 90% RH) was “about 13.8%”. For the same compound, the hygroscopic weight gain [1, 5] was “about 12.8%”, the Crystal form [2, 8] was “No change” and the Purity [2, 8] was 98.2%. The Crystal form ([2]; open container, 60° C., 7 days) was “No change”, the Purity ([2]; open container, 60° C., 7 days) was 99.2% and the Crystal form [2, 9] was “No change”. The Purity [2, 9] was 99.0%, the Crystal form [2, 10] was “No change” and the Purity [2, 10] was 99.6%. For the same compound, the Crystal form ([2]; open container, 75% RH, 7 days) was “No change”, the Purity ([2]; open container, 75% RH, 7 days) was 99.7% and the Crystal form [2, 11] was “No change”. For the same compound, the Purity [2, 11] was 99.6%, the Crystal form [2, 12] was “No change” and the Crystal form [2, 13] was “No change”. For the same compound, the Purity [2, 13] was 99.7%, the Crystal form [2, 14] was “No change” and the Crystal form [2, 16] was “No change”. The Crystal form [2, 17] was “No change”, the “Purity (%)” value ([3]; 0 days (initial)) was 99.7% and the Crystal form [3, 27] was “No change”. The “Purity (%)” value [3, 27] was 99.8%, the Crystal form [3, 28] was “No change” and the “Purity (%)” value [3, 28] was 99.7%. For the same compound, the Crystal form [3, 29] was “No change”, the “Purity (%)” value [3, 29] was 99.7% and the Crystal form [3, 30] was “No change”. For the same compound, the “Purity (%)” value [3, 30] was 99.7%, the Crystal form [3, 31] was “No change” and the “Purity (%)” value [3, 31] was 99.6%. The Crystal form [3, 32] was “No change”, the “Purity (%)” value [3, 32] was 99.4% and the Crystal form [3, 33] was “No change”. For the same compound, the “Purity (%)” value [3, 33] was 97.9%, the Crystal form [3, 34] was “No change” and the “Purity (%)” value [3, 34] was 97.9%. For the same compound, the “long-term/accelerated stability (conclusion)” value ([3]; under long-term conditions) was “stable”.
